# Reference: US5041567A, “Antibacterial monic acid derivatives” (Beecham Group plc, priority 1982, dated 1991)
# Where two headings read alike, the source gives them in different places.
# Key:
# [1] = system: M. suipneumoniae TAM 6N; test: MIC against mycoplasma in vitro; format: cell-based; details: Mesomycoplasma hyopneumoniae, TAM6N, 144 h
# [2] = system: Staph. aureus Oxford; test: MIC against human bacteria in vitro; format: cell-based; details: Staphylococcus aureus; Staph. aureus Oxford; 5% chocolated horse blood agar, 18 hours; read-out: MIC
# [3] = system: Sarcina lutea 8340; test: MIC against human bacteria in vitro; format: cell-based; details: Micrococcus luteus; Sarcina lutea 8340; 5% chocolated horse blood agar, 18 hours; read-out: MIC
# [4] = system: Strep. suis (group D) SPS11; test: MIC against veterinary bacteria in vitro; details: Streptococcus suis, 18 h
# Procedure: (§1) The activity of the compounds of the Examples against various veterinarily important bacteria, was assayed in vitro using two-fold serial dilutions in Diagnostic Sensitivity Test Agar inoculated with 10^4 organisms.
# [5] = system: M. suipneumoniae HK(2); test: MIC against mycoplasma in vitro; format: cell-based; details: Mesomycoplasma hyopneumoniae, 144 h
# [6] = system: Strep. uberis SPU1; test: MIC against veterinary bacteria in vitro; details: Streptococcus uberis, SPU1, 18 h
# Procedure: as §1
# [7] = system: M. suipneumoniae MS 16; test: MIC against mycoplasma in vitro; format: cell-based; details: Mesomycoplasma hyopneumoniae, MS16, 144 h
# [8] = system: Strep. faecalis I; test: MIC against human bacteria in vitro; format: cell-based; details: Enterococcus faecalis; Strep. faecalis I; 5% chocolated horse blood agar, 18 hours; read-out: MIC
# [9] = system: M. suipneumoniae LABER; test: MIC against mycoplasma in vitro; format: cell-based; details: Mesomycoplasma hyopneumoniae, 144 h
# [10] = system: K. aerogenes A; test: MIC against human bacteria in vitro; format: cell-based; details: Klebsiella aerogenes; K. aerogenes A; 5% chocolated horse blood agar, 18 hours; read-out: MIC
# [11] = system: M. hyosynoviae ATCC 25591; test: MIC against mycoplasma in vitro; format: cell-based; details: 144 h
# [12] = system: Past. multocida PA2; test: MIC against veterinary bacteria in vitro; details: Pasteurella multocida, PA2, 18 h
# Procedure: as §1
# [13] = system: M. dispar NCTC 10125; test: MIC against mycoplasma in vitro; format: cell-based; details: 144 h
# [14] = system: E. coli ESS; test: MIC against human bacteria in vitro; format: cell-based; details: Escherichia coli; E. coli ESS; 5% chocolated horse blood agar, 18 hours; read-out: MIC
# [15] = system: Staph. aureus B4 (pen. resistant); test: MIC against veterinary bacteria in vitro; details: Staphylococcus aureus, 18 h
# Procedure: as §1
# [16] = system: Neisseria catarrhalis 1502; test: MIC against human bacteria in vitro; format: cell-based; details: Neisseria catarrhalis 1502; 5% chocolated horse blood agar, 18 hours; read-out: MIC
# [17] = system: Bacillus subtilis 6633; test: MIC against human bacteria in vitro; format: cell-based; details: Bacillus subtilis 6633; 5% chocolated horse blood agar, 18 hours; read-out: MIC
# [18] = system: M. hyorhinis ATCC 23234; test: MIC against mycoplasma in vitro; format: cell-based; details: Mesomycoplasma hyorhinis, ATCC23234, 144 h
# [19] = system: P. mirabilis 889; test: MIC against human bacteria in vitro; format: cell-based
# [20] = system: M. suipneumoniae ATCC 25095; test: MIC against mycoplasma in vitro; format: cell-based; details: Mesomycoplasma hyopneumoniae, ATCC25095, 144 h
# [21] = system: M. suipneumoniae JF 435; test: MIC against mycoplasma in vitro; format: cell-based; details: Mesomycoplasma hyopneumoniae, JF435, 144 h
# [22] = system: M. pneumoniae ATCC 15492; test: MIC against mycoplasma in vitro; format: cell-based; details: Mycoplasmoides pneumoniae, ATCC15492, 144 h; M. pneumoniae ATCC 15492; 6 days, 37° C.; read-out: MIC
# [23] = system: Pasteurella multocida 1633; test: MIC against human bacteria in vitro; format: cell-based; details: Pasteurella multocida 1633; 5% chocolated horse blood agar, 18 hours; read-out: MIC
# [24] = system: Staph. aureus Russell; test: MIC against human bacteria in vitro; format: cell-based; details: Staphylococcus aureus; Staph. aureus Russell; 5% chocolated horse blood agar, 18 hours; read-out: MIC
# [25] = system: S. typhimurium S18; test: MIC against veterinary bacteria in vitro; details: Salmonella enterica, TYPHIMURIUM, 18 h
# Procedure: as §1
# [26] = system: M. suipneumoniae J2206/183^b; test: MIC against mycoplasma in vitro; format: cell-based; details: Mesomycoplasma hyopneumoniae, 144 h
# [27] = system: Staph. aureus 152 (pen. sens); test: MIC against veterinary bacteria in vitro; details: Staphylococcus aureus, 18 h
# Procedure: as §1
# [28] = system: Strep. pneumoniae CN33; test: MIC against human bacteria in vitro; format: cell-based; details: Streptococcus pneumoniae; Strep. pneumoniae CN33; 5% chocolated horse blood agar, 18 hours; read-out: MIC
# [29] = system: Strep. spp. 64/848-C; test: MIC against human bacteria in vitro; format: cell-based; details: Strep. spp. 64/848-C; 5% chocolated horse blood agar, 18 hours; read-out: MIC
# [30] = system: Staph. aureus W2827; test: MIC against human bacteria in vitro; format: cell-based; details: Staphylococcus aureus; Staph. aureus W2827; 5% chocolated horse blood agar, 18 hours; read-out: MIC
# [31] = system: Bord. bronchiseptica B08; test: MIC against veterinary bacteria in vitro; details: Bordetella bronchiseptica, B08, 18 h
# Procedure: as §1
# [32] = system: M. suipneumoniae NCTC 10110; test: MIC against mycoplasma in vitro; format: cell-based; details: Mesomycoplasma hyopneumoniae, NCTC10110, 144 h
# [33] = system: Strep. pyogenes R80/421-A; test: MIC against human bacteria in vitro; format: cell-based; details: Streptococcus pyogenes; Strep. pyogenes R80/421-A; 5% chocolated horse blood agar, 18 hours; read-out: MIC
# [34] = system: M. hyorhinis ATCC 25021; test: MIC against mycoplasma in vitro; format: cell-based; details: Mesomycoplasma hyorhinis, ATCC25021, 144 h
# [35] = system: E. coli E1; test: MIC against veterinary bacteria in vitro; details: Escherichia coli, E1, 18 h
# Procedure: as §1
# [36] = M. suipneumoniae TAM 6N, 6 days, 37° C., read-out: MIC
# [37] = M. suipneumoniae HK(2), 6 days, 37° C., read-out: MIC
# [38] = M. dispar NCTC 10125, 6 days, 37° C., read-out: MIC
# [39] = Proteus mirabilis, P. mirabilis 889, 5% chocolated horse blood agar, 18 hours, read-out: MIC
# [40] = M. suipneumoniae JF 435, 6 days, 37° C., read-out: MIC
# [41] = M. suipneumoniae J2206/183^b, 6 days, 37° C., read-out: MIC
# [42] = M. suipneumoniae NCTC 10110, 6 days, 37° C., read-out: MIC
SMILES,MIC [2] [µg/mL],MIC [3] [µg/mL],MIC [4] [µg/mL],MIC [6] [µg/mL],MIC [8] [µg/mL],MIC [10] [µg/mL],MIC [12] [µg/mL],MIC [14] [µg/mL],MIC [15] [µg/mL],MIC [16] [µg/mL],MIC [17] [µg/mL],MIC [23] [µg/mL],MIC [24] [µg/mL],MIC [25] [µg/mL],MIC [27] [µg/mL],MIC [28] [µg/mL],MIC [29] [µg/mL],MIC [30] [µg/mL],MIC [31] [µg/mL],MIC [33] [µg/mL],also measured
"C/C(=C\c1ncc(-c2ccccc2)o1)C[C@@H]1OC[C@H](C[C@@H]2O[C@H]2[C@@H](C)[C@H](C)O)[C@@H](O)[C@H]1O [Example 1, 2-(1-normon-2-yl)-5-phenyloxazole A]",5,≥ 100,20,0.625,≥ 100,> 100,1.25,10,1.25,10,2.5,10,5,> 80,1.25,2.5,2.5,5,80,1,"MIC [1, 36]: 1 µg/mL; MIC [5, 37]: 1 µg/mL; MIC [7]: 0.5 µg/mL; MIC [9]: 0.5 µg/mL; MIC [11]: 0.5 µg/mL; MIC [13, 38]: 0.1 µg/mL; MIC [18]: 0.5 µg/mL; MIC [19, 39]: > 100 µg/mL; MIC [20]: 0.5 µg/mL; MIC [21, 40]: 1 µg/mL; MIC [22]: 2.5 µg/mL; MIC [26, 41]: 1 µg/mL; MIC [32, 42]: 1 µg/mL; MIC [34]: 0.5 µg/mL; MIC [35]: > 80 µg/mL"
"C/C(=C\c1ncc(-c2ccc([N+](=O)[O-])cc2)o1)C[C@@H]1OC[C@H](C[C@@H]2O[C@H]2[C@@H](C)[C@H](C)O)[C@@H](O)[C@H]1O [Example 3, 5-p-nitro-phenyl-2-(1-normon-2-yl)-oxazole A]",0.2,> 100,2.5,0.039,50,100,0.625,0.5,0.312,0.5,0.5,0.5,5,> 80,0.312,0.5,0.5,1,40,0.5,"MIC [1, 36]: 0.25 µg/mL; MIC [5, 37]: 0.25 µg/mL; MIC ([7]; M. suipneumoniae MS 16, 6 days, 37° C., read-out: MIC): 0.05 µg/mL; MIC ([9]; M. suipneumoniae LABER, 6 days, 37° C., read-out: MIC): 0.1 µg/mL; MIC ([11]; M. hyosynoviae ATCC 25591, 6 days, 37° C., read-out: MIC): 0.25 µg/mL; MIC [13, 38]: 0.05 µg/mL; MIC ([18]; M. hyorhinis ATCC 23234, 6 days, 37° C., read-out: MIC): 0.1 µg/mL; MIC ([19]; Proteus mirabilis, 889, 18 h): 50 µg/mL; MIC ([20]; M. suipneumoniae ATCC 25095, 6 days, 37° C., read-out: MIC): 0.1 µg/mL; MIC [21, 40]: 0.25 µg/mL; MIC [22]: 0.5 µg/mL; MIC [26, 41]: 0.25 µg/mL; MIC [32, 42]: 0.25 µg/mL; MIC ([34]; M. hyorhinis ATCC 25021, 6 days, 37° C., read-out: MIC): 0.05 µg/mL; MIC [35]: > 80 µg/mL"
"COc1ccc(-c2cnc(/C=C(\C)C[C@@H]3OC[C@H](C[C@@H]4O[C@H]4[C@@H](C)[C@H](C)O)[C@@H](O)[C@H]3O)o2)cc1 [Example 4, 5-p-methoxyphenyl-2-(1-normon-2-yl)oxazole A]",2.5,> 100,20,0.312,> 100,> 100,5,2.5,5,10,5,25,5,> 80,5,5,5,5,> 80,5,"MIC [1]: 1 µg/mL; MIC [5]: 1 µg/mL; MIC [7]: 0.5 µg/mL; MIC [9]: 0.5 µg/mL; MIC [11]: 0.5 µg/mL; MIC [13]: 0.25 µg/mL; MIC [18]: 0.5 µg/mL; MIC [19, 39]: > 100 µg/mL; MIC [20]: 0.5 µg/mL; MIC [21]: 1 µg/mL; MIC [26]: 1 µg/mL; MIC [32]: 1 µg/mL; MIC [34]: 0.5 µg/mL; MIC [35]: > 80 µg/mL"
